Test results as given in patent US10660911B2, “Proton-motive force stimulation to potentiate aminoglycoside antibiotics against persistent bacteria” (TRUSTEES OF BOSTON UNIVERSITY, priority 2011, dated 2020).
Entries after “also recorded” stand apart in the source; their conditions may differ.

Key:
E. coli persisters = experiment: E. coli persister assay (survival by c.f.u. per ml); format: cell-based, Escherichia coli (K12 EMG2); settings: for killing of E. coli persisters by antibiotic without metabolite: antibiotic alone, no carbon source; for killing of E. coli persisters by antibiotic in the presence of mannitol: antibiotic plus 10 mM mannitol; for potentiation of gentamicin against E. coli persisters by metabolite / reduction of persister viability (killing by gentamicin induced by metabolite): metabolite plus 10 μg/mL gentamicin; for potentiation of gentamicin against E. coli persisters by metabolite / reduction of persister viability (killing by gentamicin induced by metabolite) / potentiation of gentamicin against ΔndhΔnuoI strain persisters: 2 h; for reduction of persister viability (killing by gentamicin induced by metabolite): M9 minimal media; for potentiation of gentamicin against ΔndhΔnuoI strain persisters: ΔndhΔnuoI E. coli, gentamicin plus metabolite
Protocol: (§1) For E. coli (K12 EMG2 strain) persister assays, as described herein, samples were grown to stationary phase in Luria-bertani (LB) broth. Cultures were then treated for 4 hours with 5 μg/mL ofloxacin. […] Samples were then washed with 10 mL 1× filtered PBS and re-suspended in M9 minimal media. Metabolites (Glucose, mannitol, fructose, and pyruvate) and aminoglycoside antibiotics (10 μg/mL gentamicin, 50 μg/mL streptomycin, and 30 μg/mL kanamycin) were added, and samples were incubated at 37° C., 300 RPM, and 80% humidity. Resuspension of samples in defined minimal media allowed precise and specific testing of the effect of different metabolites on persister viability, without the possible confounding factors that a more complex media would present. For S. aureus persister (ATCC 25923 strain) experiments, cells were grown at 37° C. and 300 RPM in LB broth to an OD600 of 0.3. Cells were then diluted 1:1000 in 25 mL LB and grown for 16 hours at 37° C. and 300 RPM in 250 mL flasks. Cultures were treated with carbon source and antibiotic. Previous work has shown that, approximately all, stationary phase S. aureus cells are persistent.
At specified time points, 10 μL aliquots of samples were removed, serially diluted, and spot-plated onto LB agar plates to determine colony forming units/mL (CFU/mL). Only dilutions that yielded between 10-100 colonies were counted. Survival was determined by dividing a replicate's CFU/mL at each time point by the initial CFU/mL for the replicate.
Given the dormancy of bacterial persisters and the known energy requirement for aminoglycoside activity^16, we tested whether metabolic stimulation could potentiate the efficacy of aminoglycosides against bacterial persisters. To test this, we screened metabolites for their ability to potentiate aminoglycosides against E. coli persisters. We selected carbon sources to maximize coverage of glycolysis, the pentose-phosphate pathway (PPP) and the Entner-Doudoroff pathway (EDP) (FIGS. 1A, 1B). Bacterial persisters were isolated (as described under “Methods”), re-suspended in minimal media supplemented with individual metabolites and then treated for 2 hours with the aminoglycoside gentamicin.
The following concentrations of carbon sources were used in this study: 10 mM glucose, 10 mM mannitol, 10 mM fructose, 20 mM glycerol, 30 mM glycolate, 10 mM galactarate, 20 mM pyruvate, 10 mM gluconate, 12 mM arabinose and 12 mM ribose. 10 mM acetate was used as a supplement and 30 mM acetate was used as a potentiating metabolite in control experiments. Carbon sources were purchased from Sigma or Fisher. In E. coli persister assays, samples were re-suspended in M9 minimal media salts plus a carbon source. In all experiments using CCCP, samples were pre-treated for 5 min with the proton ionophore before antibiotic addition.
For E. coli persister assays, samples were grown to stationary phase as described above. Cultures were then treated for 4 h with 5 μg ml^−1 ofloxacin in the above-stated growth conditions. […] Samples were then washed with 10 ml of 1× filtered PBS and re-suspended in M9 minimal media. Carbon sources and antibiotics were added and samples were incubated at 37° C. 300 r.p.m. and 80% humidity. Re-suspension of samples in defined minimal media allowed us to test the effects of different carbon sources on persister viability precisely and specifically, without the possible confounding factors that a more complex medium would present. For S. aureus persister experiments, cells were grown at 37° C. and 300 r.p.m. in LB broth to an OD600 of 0.3. Cells were then diluted 1:1,000 in 25 ml LB and grown for 16 h at 37° C. and 300 r.p.m. in 250 ml flasks before treatment with a carbon source and antibiotic. Previous work has shown that almost all stationary-phase S. aureus cells are persistent^25.
At specified time points, 10-μl aliquots of samples were removed, serially diluted and spot-plated onto LB agar plates to determine colony-forming units per ml (c.f.u. ml^−1). […]

[1] = test system: stationary-phase E. coli cells; format: cell-based, Escherichia coli
Protocol: Given that aminoglycoside uptake is energy-dependent^16, we investigated whether the metabolic stimuli screened here could increase aminoglycoside uptake. We measured uptake by fluorescently labelling gentamicin with Texas red and analyzing cells by fluorescence-activated cell sorting (FACS). Cells were pre-incubated with metabolites for 30 min before a 5-min treatment with gentamicin-Texas red (FIG. 1D and FIG. 14).
Gentamicin-Texas red was made as previously described^27. At 4° C., 1 mg of Texas red (Invitrogen) was dissolved in 50 μl of high-quality anhydrous N,N-dimethylformamide. The dissolved Texas red was added slowly to 2.3 ml of 10 mg ml^−1 gentamicin solution in 100 mM K2CO3 at 4° C.
Uptake of gentamicin-Texas red induced by carbon sources in stationary-phase cells was determined by adding concentrated carbon sources (see section on media and growth conditions for concentrations) to stationary-phase cultures and incubating them for 30 min at 37° C., 300 r.p.m. and 80% humidity. Concentrated gentamicin-Texas red was then added to a final concentration of 10 μg ml^−1 and samples were incubated for 5 min. 100 μl of each sample was then washed with 1 ml of PBS and re-suspended in 1 ml of PBS. […] Samples were analysed on a BD FACS Aria II flow cytometer with the following settings: mCherry voltage, 650 V; FSC threshold, 1,000; recorded events, 100,000; gated-out mCherry events. <30.

S. aureus persisters = experiment: S. aureus persister assay; format: cell-based, Staphylococcus aureus (ATCC 25923)
Protocol: as §1, with “Previous work has shown that, approximately all, stationary phase S. aureus cells are persistent.” left out
At specified time points, 10-μl aliquots of samples were removed, serially diluted and spot-plated onto LB agar plates to determine colony-forming units per ml (c.f.u. ml^−1). Only dilutions that yielded 10-100 colonies were counted Survival was determined by dividing the c.f.u. ml^−1 of a sample at each time point by the initial c.f.u. ml^−1 for that sample.

[2] = test system: uropathogenic E. coli biofilms; experiment: Mouse chronic urinary tract infection assay; format: in vivo, mice (BALB/c); settings: i.v. twice daily for 3 days; gentamicin 1 mg/kg, mannitol 1.5 g/kg
Protocol: Female Charles River Balb/C mice (weighing 22-26 g) received surgical implantation in the urinary tract of 6 mm PESO catheter tubing that had been incubated in cultures of uropathogenic E. coli for 24 hours to form biofilms. Forty-eight hours after surgery, mice received no treatment or twice-daily, intravenous treatment with gentamicin (1 mg/Kg) or mannitol (1.5 g/Kg) and gentamicin (1 mg/Kg) for three days. Seven to eight mice were included in each group. Twenty-four hours after the last treatment, catheter tubing was extracted to determine biofilm viability and kidneys were removed to determine bacterial load.
To determine the clinical relevance of metabolic potentiation of aminoglycosides in vivo, we tested the ability of gentamicin in combination with mannitol to treat chronic, biofilm-associated infection in a mouse model. Catheters colonized with uropathogenic E. coli biofilms were implanted in the urinary tracts of mice (FIG. 3D). Two days after surgery, mice received either no treatment or intravenous treatment with gentamicin or gentamicin and mannitol for 3 days, after which the catheters were removed and biofilm viability was determined. Gentamicin alone had no effect, whereas gentamicin in combination with mannitol reduced the viability of the catheter biofilms by nearly 1.5 orders of magnitude (FIG. 3D). […]

Q: `N#CC(C#N)=NNc1cccc(Cl)c1` [CCCP, carbonyl cyanide m-chlorophenyl hydrazone] was tested. Which “effect of CCCP on metabolite potentiation of gentamicin” value (E. coli persisters; 20 μM CCCP pre-incubation, 10 μg/mL gentamicin plus carbon sources) did it give?
A: abolish aminoglycoside potentiation by all of the carbon sources; also recorded: abolishes metabolite-enabled potentiation

Q: And the “effect of CCCP on metabolite-induced gentamicin-Texas red uptake” value ([1]; 20 μM CCCP, 10 μg/mL Gent-TR, 30 min on carbon source)?
A: suppressed the metabolite-induced uptake of aminoglycoside

Q: For `CC1(C)S[C@@H]2[C@H](NC(=O)[C@H](N)c3ccccc3)C(=O)N2[C@H]1C(=O)O` [ampicillin], which “killing of E. coli persisters by antibiotic without metabolite” value (from here on “killing … by antibiotic without metabolite”) (E. coli persisters) is on record?
A: none of the bactericidal antibiotics used in this study (ofloxacin, ampicillin, and gentamicin) caused killing of cells; also recorded: neither the β-lactam ampicillin nor the quinolone ofloxacin showed appreciable killing

Q: And the “killing of E. coli persisters by antibiotic in the presence of mannitol” value (E. coli persisters)?
A: neither the β-lactam ampicillin nor the quinolone ofloxacin showed appreciable killing

Q: Which “potentiation of gentamicin against E. coli persisters by metabolite” value (E. coli persisters) does the source give for `O=C[C@@H](O)[C@H](O)[C@H](O)CO` [arabinose] here?
A: low potentiation

Q: `O=C(CO)[C@@H](O)[C@H](O)[C@H](O)CO` [fructose] was tested. Which “reduction of persister viability (killing by gentamicin induced by metabolite)” value (E. coli persisters) did it give?
A: three orders of magnitude

Q: And the “potentiation of gentamicin against ΔndhΔnuoI strain persisters” value (E. coli persisters)?
A: not potentiated

Q: What about the “PMF dependence of fructose potentiation in S. aureus” value (S. aureus persisters; gentamicin and fructose, with or without CCCP, 4 h) of the same compound?
A: requires PMF generation; also recorded: PMF-dependent killing

Q: How did the “potentiation of gentamicin against E. coli persisters by metabolite” value (E. coli persisters) turn out when `O=C(O)[C@H](O)[C@@H](O)[C@H](O)[C@H](O)CO` [gluconate] was run?
A: low potentiation

Q: `O=C(O)CO` [glycolate] was tested. Which “uptake of Texas Red probe” value ([1]; 30 mM glycolate, stationary phase E. coli) did it give?
A: affects the uptake of Texas Red probe

Q: Which “reduction of persister viability (killing by gentamicin induced by metabolite)” value (E. coli persisters) does the source give for `OC[C@@H](O)[C@@H](O)[C@H](O)[C@H](O)CO` [mannitol] here?
A: three orders of magnitude

Q: And the “potentiation of gentamicin against ΔndhΔnuoI strain persisters” value (E. coli persisters)?
A: not potentiated

Q: What about the “potentiation of gentamicin against S. aureus persisters by metabolite” value (S. aureus persisters) of the same compound?
A: little potentiation

Q: How did the “potentiation of gentamicin against E. coli persisters by metabolite” value (E. coli persisters) turn out when `O=C[C@H](O)[C@H](O)[C@H](O)CO` [ribose] was run?
A: low potentiation

Q: `[H]/N=C(/N)N[C@H]1[C@H](O)[C@@H](O)[C@H](O[C@@H]2O[C@@H](C)[C@](O)(C=O)[C@H]2O[C@@H]2O[C@@H](CO)[C@H](O)[C@@H](O)[C@@H]2NC)[C@@H](N/C(N)=N\[H])[C@@H]1O` [streptomycin] was tested. Which “killing … by antibiotic without metabolite” value (E. coli persisters) did it give?
A: no appreciable killing

Q: What about the “aminoglycoside activity against E. coli persisters with upper-glycolytic metabolites” value (E. coli persisters; plus glucose, mannitol or fructose, 30 μg/mL kanamycin, 50 μg/mL streptomycin) of the same compound?
A: greatly enabled

Q: For gentamicin, which “killing … by antibiotic without metabolite” value (E. coli persisters) is on record?
A: none of the bactericidal antibiotics used in this study (ofloxacin, ampicillin, and gentamicin) caused killing of cells; also recorded: No killing

Q: And the “killing of E. coli persisters by antibiotic in the presence of mannitol” value (E. coli persisters)?
A: rapidly eliminated

Q: What about the “reduction of viability of catheter biofilms” value [2] of the same compound?
A: no effect
